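Five concentrations, 48 hours, 96-well plates. GI50 marks 50% less growth. TGI: concentration producing complete growth inhibition.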
Assays:
Test in all cases: DTP human tumour cell line panel, 48 h
DMS 273 small cell lung = system: DMS 273 small cell lung
SK-MEL-2 melanoma = system: SK-MEL-2 melanoma
HCC-2998 colon = system: HCC-2998 colon
HOP-62 NSCLC = system: HOP-62 NSCLC
LOX IMVI melanoma = system: LOX IMVI melanoma
K-562 leukemia = system: K-562 leukemia
HT29 colon = system: HT29 colon
HOP-92 NSCLC = system: HOP-92 NSCLC
M14 melanoma = system: M14 melanoma
HCT-116 colon = system: HCT-116 colon
DMS 114 small cell lung = system: DMS 114 small cell lung
UACC-62 melanoma = system: UACC-62 melanoma
DLD-1 colon = system: DLD-1 colon
OVCAR-4 ovarian = system: OVCAR-4 ovarian
SN12C renal = system: SN12C renal
SF-295 CNS = system: SF-295 CNS
SK-MEL-28 melanoma = system: SK-MEL-28 melanoma
OVCAR-8 ovarian = system: OVCAR-8 ovarian
TK-10 renal = system: TK-10 renal
COLO 205 colon = system: COLO 205 colon
ACHN renal = system: ACHN renal
RXF 393 renal = system: RXF 393 renal
UACC-257 melanoma = system: UACC-257 melanoma
SK-MEL-5 melanoma = system: SK-MEL-5 melanoma
MALME-3M melanoma = system: MALME-3M melanoma
786-0 renal = system: 786-0 renal
OVCAR-5 ovarian = system: OVCAR-5 ovarian
SW-620 colon = system: SW-620 colon
NCI-H460 lung = system: NCI-H460 lung
MOLT-4 leukemia = system: MOLT-4 leukemia
SNB-75 CNS = system: SNB-75 CNS
EKVX NSCLC = system: EKVX NSCLC
LXFL 529 NSCLC = system: LXFL 529 NSCLC
CAKI-1 renal = system: CAKI-1 renal
RPMI-8226 leukemia = system: RPMI-8226 leukemia
SF-268 CNS = system: SF-268 CNS
CCRF-CEM leukemia = system: CCRF-CEM leukemia
SR leukemia = system: SR leukemia
XF 498 CNS = system: XF 498 CNS
A549 NSCLC = system: A549 NSCLC
HCT-15 colon = system: HCT-15 colon
IGROV1 ovarian = system: IGROV1 ovarian
UO-31 renal = system: UO-31 renal
KM12 colon = system: KM12 colon
A498 renal = system: A498 renal
NCI-H23 lung = system: NCI-H23 lung
HL-60(TB) leukemia = system: HL-60(TB) leukemia
NCI-H522 lung = system: NCI-H522 lung
SF-539 CNS = system: SF-539 CNS
SNB-19 CNS = system: SNB-19 CNS
SK-OV-3 ovarian = system: SK-OV-3 ovarian
HOP-18 NSCLC = system: HOP-18 NSCLC
NCI-H226 lung = system: NCI-H226 lung
U251 CNS = system: U251 CNS
OVCAR-3 ovarian = system: OVCAR-3 ovarian
M19-MEL melanoma = system: M19-MEL melanoma
KM20L2 colon = system: KM20L2 colon
SNB-78 CNS = system: SNB-78 CNS

## COC(=O)CCC(=O)N1CC1C (stereo not drawn)
DMS 273 small cell lung
  TGI: > 100 µM
SK-MEL-2 melanoma
  TGI: > 100 µM
HCC-2998 colon
  TGI: > 100 µM
HOP-62 NSCLC
  TGI: > 100 µM
LOX IMVI melanoma
  TGI: > 100000 nM
K-562 leukemia
  TGI: > 100 µM
HT29 colon
  TGI: > 100 µM
HOP-92 NSCLC
  TGI: > 100 µM
M14 melanoma
  TGI: > 100 µM
HCT-116 colon
  TGI: > 100 µM
DMS 114 small cell lung
  TGI: > 100 µM
UACC-62 melanoma
  TGI: > 100 µM
DLD-1 colon
  TGI: > 100 µM
OVCAR-4 ovarian
  TGI: > 100 µM
SN12C renal
  TGI: > 100 µM
SF-295 CNS
  TGI: > 100 µM
SK-MEL-28 melanoma
  TGI: > 100 µM
OVCAR-8 ovarian
  TGI: > 100 µM
TK-10 renal
  TGI: > 100 µM
COLO 205 colon
  TGI: > 100 µM
ACHN renal
  TGI: > 100 µM
RXF 393 renal
  TGI: > 100 µM
UACC-257 melanoma
  TGI: > 100 µM
SK-MEL-5 melanoma
  TGI: > 100 µM
MALME-3M melanoma
  TGI: > 100 µM
786-0 renal
  TGI: > 100 µM
OVCAR-5 ovarian
  TGI: > 100 µM
SW-620 colon
  TGI: > 100 µM
NCI-H460 lung
  TGI: > 100 µM
MOLT-4 leukemia
  TGI: > 100 µM
SNB-75 CNS
  TGI: > 100 µM
EKVX NSCLC
  TGI: > 100 µM
LXFL 529 NSCLC
  TGI: > 100 µM
CAKI-1 renal
  TGI: > 100 µM
RPMI-8226 leukemia
  TGI: > 100 µM
SF-268 CNS
  TGI: > 100 µM
CCRF-CEM leukemia
  TGI: > 100 µM
SR leukemia
  TGI: > 100 µM
XF 498 CNS
  TGI: > 100 µM
A549 NSCLC
  TGI: > 100 µM
HCT-15 colon
  TGI: > 100 µM
IGROV1 ovarian
  TGI: > 100 µM
UO-31 renal
  TGI: > 100 µM
KM12 colon
  TGI: > 100 µM
A498 renal
  TGI: > 100 µM
NCI-H23 lung
  TGI: > 100 µM
HL-60(TB) leukemia
  TGI: > 100 µM
NCI-H522 lung
  TGI: > 100 µM
SF-539 CNS
  TGI: > 100 µM
SNB-19 CNS
  TGI: > 100 µM
SK-OV-3 ovarian
  TGI: > 100 µM
HOP-18 NSCLC
  TGI: > 100 µM
NCI-H226 lung
  TGI: > 100 µM
U251 CNS
  TGI: > 100 µM
OVCAR-3 ovarian
  TGI: > 100 µM
M19-MEL melanoma
  TGI: > 100 µM
KM20L2 colon
  TGI: > 100 µM

## CCC[CH2][Sn]([CH2]CCC)([CH2]CCC)[O]C(=O)C(OC)c1ccccc1 (stereo not drawn)
HCC-2998 colon
  GI50: 38.1 nM
  TGI: 0.144 µM
HOP-62 NSCLC
  GI50: 135 nM
  TGI: 0.27 µM
LOX IMVI melanoma
  GI50: 30.9 nM
  TGI: 130 nM
HT29 colon
  GI50: 50.7 nM
  TGI: 0.168 µM
HOP-92 NSCLC
  GI50: 27.4 nM
  TGI: 0.175 µM
M14 melanoma
  GI50: 133 nM
  TGI: 0.263 µM
HCT-116 colon
  GI50: 50.8 nM
  TGI: 0.182 µM
UACC-62 melanoma
  GI50: 91.3 nM
  TGI: 0.215 µM
OVCAR-4 ovarian
  GI50: 60.4 nM
  TGI: 0.189 µM
SN12C renal
  GI50: 117 nM
  TGI: 0.24 µM
SF-295 CNS
  GI50: 130 nM
  TGI: 0.259 µM
SK-MEL-28 melanoma
  GI50: 137 nM
  TGI: 0.27 µM
OVCAR-8 ovarian
  GI50: 141 nM
  TGI: 0.272 µM
TK-10 renal
  GI50: 263 nM
  TGI: 0.984 µM
COLO 205 colon
  GI50: 134 nM
  TGI: 0.264 µM
ACHN renal
  GI50: 129 nM
  TGI: 0.257 µM
RXF 393 renal
  GI50: 56.1 nM
  TGI: 0.194 µM
UACC-257 melanoma
  GI50: 96.9 nM
  TGI: 0.217 µM
SK-MEL-5 melanoma
  GI50: 133 nM
  TGI: 0.262 µM
MALME-3M melanoma
  GI50: 112 nM
  TGI: 0.234 µM
786-0 renal
  GI50: 142 nM
  TGI: 0.288 µM
OVCAR-5 ovarian
  GI50: 37.1 nM
  TGI: 0.183 µM
SW-620 colon
  GI50: 112 nM
  TGI: 0.236 µM
NCI-H460 lung
  GI50: 83.5 nM
  TGI: 0.217 µM
MOLT-4 leukemia
  TGI: 0.835 µM
SNB-75 CNS
  GI50: 82.4 nM
  TGI: 0.513 µM
EKVX NSCLC
  GI50: 27.7 nM
  TGI: 0.228 µM
CAKI-1 renal
  GI50: 115 nM
  TGI: 0.238 µM
RPMI-8226 leukemia
  GI50: 20.6 nM
  TGI: 0.306 µM
SF-268 CNS
  GI50: 112 nM
  TGI: 0.327 µM
A549 NSCLC
  GI50: 117 nM
  TGI: 0.265 µM
HCT-15 colon
  GI50: 86.4 nM
  TGI: 0.211 µM
IGROV1 ovarian
  GI50: 130 nM
  TGI: 0.295 µM
UO-31 renal
  GI50: 113 nM
  TGI: 0.234 µM
KM12 colon
  GI50: 52 nM
  TGI: 0.178 µM
A498 renal
  GI50: 123 nM
  TGI: 0.263 µM
NCI-H23 lung
  GI50: 49.9 nM
  TGI: 0.179 µM
HL-60(TB) leukemia
  GI50: 41.8 nM
  TGI: 0.256 µM
NCI-H522 lung
  GI50: 88.5 nM
  TGI: 0.212 µM
SF-539 CNS
  GI50: 134 nM
  TGI: 0.268 µM
SNB-19 CNS
  GI50: 156 nM
  TGI: 0.301 µM
SK-OV-3 ovarian
  GI50: 122 nM
  TGI: 0.246 µM
NCI-H226 lung
  GI50: 104 nM
  TGI: 0.252 µM
U251 CNS
  GI50: 106 nM
  TGI: 0.225 µM
OVCAR-3 ovarian
  GI50: 84.5 nM
  TGI: 0.213 µM
KM20L2 colon
  GI50: 49.1 nM
  TGI: 0.171 µM

## N#C/C(=C\c1ccccc1)C(NO)Nc1ccccc1 (stereo not drawn)
DMS 273 small cell lung
  TGI: > 100 µM
SK-MEL-2 melanoma
  TGI: > 100 µM
HCC-2998 colon
  TGI: > 100 µM
HOP-62 NSCLC
  TGI: > 100 µM
K-562 leukemia
  TGI: > 100 µM
HT29 colon
  TGI: > 100 µM
HOP-92 NSCLC
  TGI: > 100 µM
SNB-78 CNS
  TGI: > 100 µM
M14 melanoma
  TGI: > 100 µM
HCT-116 colon
  TGI: > 100 µM
UACC-62 melanoma
  TGI: > 100 µM
DLD-1 colon
  TGI: > 100 µM
OVCAR-4 ovarian
  TGI: > 100 µM
SN12C renal
  TGI: > 100 µM
SF-295 CNS
  TGI: > 100 µM
SK-MEL-28 melanoma
  TGI: > 100 µM
OVCAR-8 ovarian
  TGI: > 100 µM
TK-10 renal
  TGI: > 100 µM
COLO 205 colon
  TGI: > 100 µM
ACHN renal
  TGI: > 100 µM
RXF 393 renal
  TGI: > 100 µM
UACC-257 melanoma
  TGI: > 100 µM
SK-MEL-5 melanoma
  TGI: > 100 µM
MALME-3M melanoma
  TGI: > 100 µM
786-0 renal
  TGI: > 100 µM
OVCAR-5 ovarian
  TGI: > 100 µM
SW-620 colon
  TGI: > 100 µM
NCI-H460 lung
  TGI: > 100 µM
MOLT-4 leukemia
  TGI: > 100 µM
SNB-75 CNS
  TGI: > 100 µM
EKVX NSCLC
  TGI: > 100 µM
LXFL 529 NSCLC
  TGI: > 100 µM
CAKI-1 renal
  TGI: > 100 µM
RPMI-8226 leukemia
  TGI: > 100 µM
SF-268 CNS
  TGI: > 100 µM
CCRF-CEM leukemia
  TGI: > 100 µM
SR leukemia
  TGI: > 100 µM
A549 NSCLC
  TGI: > 100 µM
HCT-15 colon
  TGI: > 100 µM
IGROV1 ovarian
  TGI: > 100 µM
UO-31 renal
  TGI: > 100 µM
KM12 colon
  TGI: > 100 µM
A498 renal
  TGI: > 100 µM
NCI-H23 lung
  TGI: > 100 µM
HL-60(TB) leukemia
  TGI: > 100 µM
NCI-H522 lung
  TGI: > 100 µM
SF-539 CNS
  TGI: > 100 µM
SNB-19 CNS
  TGI: > 100 µM
SK-OV-3 ovarian
  TGI: > 100 µM
HOP-18 NSCLC
  TGI: > 100 µM
NCI-H226 lung
  TGI: > 100 µM
U251 CNS
  TGI: > 100 µM
OVCAR-3 ovarian
  TGI: > 100 µM
M19-MEL melanoma
  TGI: > 100 µM
KM20L2 colon
  TGI: > 100 µM

— PubChem BioAssay (NCI)
